System: 885512-296-R-J2-PDC complex spheroid viability
Assay: Anticancer human tumor 885512-296-R-J2-PDC patient-derived breast carcinoma cell line growth inhibition
Conditions: for IC50: curve of first compound; for viability, T/C: stronger effect = lower value
Outline: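 Drug combinations with the LSD1 inhibitor iadademstat tested on tumor cells co-cultured as spheroids with endothelial cells and mesenchymal stem cells. Concentrations descended in half-log increments from clinical Cmax or 10 microM.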

[1] = second compound 0.1 µM, first compound 0.0316 µM
[2] = second compound 0.1 µM, first compound 0.1 µM
[3] = second compound 0.1 µM, first compound 0.316 µM
[4] = second compound 0.1 µM, first compound 1 µM
[5] = second compound 0.1 µM, first compound 3.16 µM
[6] = second compound 0.1 µM, first compound 10 µM
[7] = second compound 0.316 µM, first compound 0.0316 µM
[8] = second compound 0.316 µM, first compound 0.1 µM
[9] = second compound 0.316 µM, first compound 0.316 µM
[10] = second compound 0.316 µM, first compound 1 µM
[11] = second compound 0.316 µM, first compound 3.16 µM
[12] = second compound 0.316 µM, first compound 10 µM
[13] = second compound 1 µM, first compound 0.0316 µM
[14] = second compound 1 µM, first compound 0.1 µM
[15] = second compound 1 µM, first compound 0.316 µM
[16] = second compound 1 µM, first compound 1 µM
[17] = second compound 1 µM, first compound 3.16 µM
[18] = second compound 1 µM, first compound 10 µM
[19] = second compound 3.16 µM, first compound 0.0316 µM
[20] = second compound 3.16 µM, first compound 0.1 µM
[21] = second compound 3.16 µM, first compound 0.316 µM
[22] = second compound 3.16 µM, first compound 1 µM
[23] = second compound 3.16 µM, first compound 3.16 µM
[24] = second compound 3.16 µM, first compound 10 µM
[25] = second compound 10 µM, first compound 0.0316 µM
[26] = second compound 10 µM, first compound 0.1 µM
[27] = second compound 10 µM, first compound 0.316 µM
[28] = second compound 10 µM, first compound 1 µM
[29] = second compound 10 µM, first compound 3.16 µM
[30] = second compound 10 µM, first compound 10 µM
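Also: spheroids exposed to agents for 7 days before viability read.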

Structure (SMILES)	IC50 (second compound 0.1 µM) [µM]	IC50 (second compound 0.316 µM) [µM]	IC50 (second compound 1 µM) [µM]	IC50 (second compound 3.16 µM) [µM]	IC50 (second compound 10 µM) [µM]	viability, T/C [1] [%]	viability, T/C [2] [%]	viability, T/C [3] [%]	viability, T/C [4] [%]	viability, T/C [7] [%]	viability, T/C [8] [%]	viability, T/C [9] [%]	viability, T/C [10] [%]	viability, T/C [13] [%]	viability, T/C [14] [%]	viability, T/C [15] [%]	viability, T/C [16] [%]	viability, T/C [19] [%]	viability, T/C [20] [%]	viability, T/C [21] [%]	other results
CC(C)c1c(-c2ccccc2)nc2c(C#N)c[nH]n2c1=O + NC1CC1c1ccc(-c2cccc(O)c2)cc1	> 10	> 10	> 10	> 10	6.76	120	128	127	118	140	124	128	128	132	121	118	118	138	131	118	viability, T/C [5]: 119%; viability, T/C [6]: 84.8%; viability, T/C [11]: 137%; viability, T/C [12]: 87.4%; viability, T/C [17]: 125%; viability, T/C [18]: 74.9%; viability, T/C [22]: 108%; viability, T/C [23]: 124%; viability, T/C [24]: 71.9%; viability, T/C [25]: 88%; viability, T/C [26]: 88.3%; viability, T/C [27]: 88.5%; viability, T/C [28]: 70.1%; viability, T/C [29]: 72.9%; viability, T/C [30]: 40.1%
CC1COCCN1c1cc(-c2ccnn2C)c2ccnc(-c3ccn[nH]3)c2n1 (stereo not given) + NC1CC1c1ccc(-c2cccc(O)c2)cc1	< 0.00316	< 0.00316	< 0.00316	< 0.00316	< 0.00316	2.05	1.94	2.98	3.66	2.44	2	3.18	4.22	2.3	2.21	3.06	4.25	1.89	2.1	2.93	viability, T/C (second compound 0.1 µM, first compound 0.00316 µM): 3.29%; viability, T/C (second compound 0.1 µM, first compound 0.01 µM): 2.63%; viability, T/C (second compound 0.316 µM, first compound 0.00316 µM): 4.19%; viability, T/C (second compound 0.316 µM, first compound 0.01 µM): 3.06%; viability, T/C (second compound 1 µM, first compound 0.00316 µM): 3.96%; viability, T/C (second compound 1 µM, first compound 0.01 µM): 3.23%; viability, T/C (second compound 3.16 µM, first compound 0.00316 µM): 2.66%; viability, T/C (second compound 3.16 µM, first compound 0.01 µM): 2.58%; viability, T/C [22]: 4.29%; viability, T/C (second compound 10 µM, first compound 0.00316 µM): 3.44%; viability, T/C (second compound 10 µM, first compound 0.01 µM): 2.73%; viability, T/C [25]: 1.93%; viability, T/C [26]: 2.12%; viability, T/C [27]: 2.49%; viability, T/C [28]: 4.01%
COc1ccc([C@@H](O)c2cc(-c3ncnc4cc(N5CCOCC5)ccc34)c(F)cc2Cl)nn1 + NC1CC1c1ccc(-c2cccc(O)c2)cc1	3.51	3.86	3.33	1.45	0.448	126	127	94.4	86.9	111	121	103	94.7	98.3	109	87.9	78.9	108	104	71.6	viability, T/C [5]: 54.5%; viability, T/C [6]: 12.9%; viability, T/C [11]: 57.6%; viability, T/C [12]: 11.8%; viability, T/C [17]: 52.2%; viability, T/C [18]: 11.8%; viability, T/C [22]: 58.8%; viability, T/C [23]: 35.8%; viability, T/C [24]: 9.34%; viability, T/C [25]: 78.4%; viability, T/C [26]: 72.1%; viability, T/C [27]: 50.6%; viability, T/C [28]: 39.7%; viability, T/C [29]: 25.5%; viability, T/C [30]: 6.59%
